Assay results taken from patent US20090088411A1, “No-donating corticosteroid with improved pharmacokinetic, anti-inflammatory and vasodilatory properties” (Topigen Pharmaceuticals Inc., priority 2007, published 2009).
Marks after values point to notes of the source that are not given here.

Assays:
[1] = parameters: species or system humans; details: human, in vivo
From the text: (§1) A clinical study was undertaken in humans to test certain aspects of a preferred NO-donating budesonide derivative, TPI-1020, as compared to the corticosteroid, budesonide which was not modified with a NO-donating moiety. Specifically, the objectives of this study were to determine the safety, pharmacodynamic and pharmacokinetic activity of multiple doses of inhaled NO-donating budesonide derivatives compared to that of equimolar doses of inhaled budesonide in subjects with mild asthma who smoke. We chose patients with asthma who smoke since these patients had reported to have not only an increase in eNO but also an increase in neutrophils within their sputum (as described in COPD). While assessing the safety of these compounds in such patients we could thus explore the effects of the same in patients with increased sputum neutrophils.
(§2) Those subjects who completed the 14-day run-in period were assigned to receive either an inhaled version of a compound of the present invention (in this case, budesonide 21-(4′-nitrooxymethyl)benzoate, designated hereafter as “TPI-1020”) or budesonide over a 21-day period. The doses administered were based on equimolar amounts of budesonide and were as follows: budesonide 400 μg bid for 14 days then 800 μg bid for 7 days; TPI-1020: 600 μg bid for 14 days then 1200 μg bid for 7 days. Study treatments were delivered in lactose-based blends using the capsule-based Aeroliser dry powder inhaler. Budesonide capsules (Miflonide®, Novartis Pharmaceuticals) delivered 383 μg as compared to 423 μg of budesonide for TPI-1020 (equivalent to 9.5% more budesonide delivered to the body in the TPI-1020 group). However, the fine particle dose of budesonide was 104 μg for the budesonide capsules and only 78 μg for the TPI-1020 capsules (equivalent to 25% less budesonide delivered to the lung in the TPI-1020 group). No other asthma medication except rescue salbutamol was permitted during the study.
The total number of adverse events reported by patients receiving budesonide and TPI-1020 is graphically depicted in FIG. 1. More specifically, FIG. 1 depicts the total number of either treatment-related or physician-determined adverse events for each drug during the 21 day therapeutic period.

[2] = Supine and standing blood pressure (vital signs), clinical study; type: in vivo, humans
Procedure: as §2

[3] = FEV1 spirometry; type: in vivo, humans; details: for FEV1 (ITT, L) / FEV1 (PD, L): mean (SD)
Procedure: (§3) Although this study was only powered for neutrophils, the following parameters were also evaluated: sputum total cell and differential cell counts, using known methods, on days 0, 15 and day 22; pre-dose FEV1 measurements on days 0, 1, 14, 15 and 22; peak flow measurements throughout the study (miniwright meter); use of daily rescue medication (salbutamol) throughout the study; the response to methacholine challenge test; and the eNO levels (chemiluminescence after reaction with ozone) on days 0, 15 and 22 and plasma CRP levels on days 0, 15 and 22.
as §2

[4] = Peak flow measurements (PEF, miniwright meter); type: in vivo, humans; details: mean (SD)
Procedure: as §3, §2

[5] = Plasma pharmacokinetic profile after inhalation; type: in vivo, humans
Procedure: as §2
TPI-1020 was not detected in the plasma of treated subjects at all the time points that were assessed over an 8 hour period on days 1 and 14 and on day 22, approximately 12 hours after the last dose. The budesonide plasma phamacokinetic analysis was different in the TPI-1020 group when compared to the budesonide group (FIG. 6). The Cmax, Tmax, and AUC were, respectively in the TPI-1020 vs. the budesonide treated group. For the data presented in FIG. 6, plasma budesonide was measured over an 8 hour period in budesonide (400 mcg, n=10) and TPI-1020 (600 mcg, n=8) treated patients after the first dose (day 1, dotted line) and day 14 (solid line).

[6] = test system: sputum neutrophils; assay: Sputum differential cell count: neutrophils; type: in vivo, humans; details: for median sputum neutrophils: all patients
From the text: as §1, §3, §2
The sample size was chosen to provide information about the primary study objective (safety) and with the power to detect a 20% difference in the decrease in sputum neutrophils with TPI-1020, versus that occurring with budesonide. There are no published studies in mild smokers with asthma that have described the variability in sputum neutrophils. However, based on the COPD publication by Gamble et al., almost all patients with COPD have increased sputum neutrophils (>20%). We calculated that if 13 subjects per group completed the study, a difference of 20% in neutrophils (%) between groups could be detected with a power of 80%.

[7] = test system: sputum eosinophils; assay: Sputum differential cell count: eosinophils; type: in vivo, humans; details: mean (SD)
Procedure: as §3, §2

[8] = Use of daily rescue medication (salbutamol); type: in vivo, humans; details: mean (SD)
Procedure: as §3, §2

[9] = Methacholine challenge test (PC20); type: in vivo, humans; details: mean (SD)
Procedure: as §3, §2

[10] = Asthma control scoring system questionnaire (ACSS); type: in vivo, humans; details: mean (SD)
Procedure: as §2

[11] = test system: exhaled nitric oxide (eNO); assay: Exhaled NO levels (chemiluminescence); type: in vivo, humans; details: for eNO (ppb): mean (SD)
Procedure: as §3, §2

[12] = test system: blood eosinophils; assay: Blood eosinophils; type: in vivo, humans; details: mean (SD)
Procedure: as §2

[13] = test system: blood lymphocytes; assay: Blood lymphocytes; type: in vivo, humans; details: mean (SD)
Procedure: as §2

[14] = test system: C-reactive protein (CRP); assay: Plasma CRP levels; type: in vivo, humans; details: for CRP (mg/L): mean (SD)
Procedure: as §3, §2

[15] = test system: neutrophils; assay: Guinea pig model of LPS induced lung inflammation; type: in vivo
[16] = test system: HPA (hypothalamic-pituitary-adrenal) axis; details: in vivo
From the text: (§4) This undesirable HPA axis suppression is typically measured by a reduction in urinary cortisol excretion.
(§5) Safety parameters consisted of adverse events and serious adverse events, vital signs, asthma symptoms, laboratory determinations of CBC, urinalysis, regular blood biochemistry, plasma C-reactive protein (CRP), plasma and urinary free cortisol levels, spirometry and electrocardiograms (ECGs).

[17] = test system: HPA (hypothalamic-pituitary-adrenal) axis; details: in vivo; remark: listed apart in the source
From the text: as §4, §5

CCCC1O[C@@H]2C[C@H]3[C@@H]4CCC5=CC(=O)C=C[C@]5(C)[C@H]4[C@@H](O)C[C@]3(C)[C@]2(C(=O)COC(=O)c2ccc(CO[N+](=O)[O-])cc2)O1 (some centres unmarked) [TPI-1020, budesonide 21-(4′-nitrooxymethyl)benzoate]
drug-related adverse events [1]: 6 | number of subjects that reported adverse events [1]: 6 | total treatment-emergent adverse events [1]: 13 | change in standing pulse pressure ([2]; after 22 days, p=0.015 between groups): −9.33 mmHg | decrease in standing diastolic blood pressure ([2]; day 22 versus baseline): 4.0% | decrease in standing systolic blood pressure ([2]; day 22 versus baseline): 9.9% | decrease in supine diastolic blood pressure ([2]; day 22 versus baseline): 3.4% | decrease in supine systolic blood pressure ([2]; day 22 versus baseline): 3.2% | effect on blood pressure values ([2]; over the 22 day period, vs baseline): decreased blood pressure values | FEV1 (ITT, L) ([3]; Baseline): 3.0 (0.5) L | FEV1 (PD, L) ([3]; Baseline): 3.0 (0.6) L | FEV1 (PD, L) ([3]; Day 1): 2.8 (0.6) L | FEV1 (PD, L) ([3]; Day 14): 3.0 (0.6) L | FEV1 (PD, L) ([3]; Day 15): 2.8 (0.7) L | FEV1 (ITT, L) ([3]; Day 22): 3.0 (0.5) L | FEV1 (PD, L) ([3]; Day 22): 3.0 (0.6) L | acute effects on FEV1 over an 8 hour period ([3]; days 1 and 14, TPI-1020 600 mcg vs budesonide 400 mcg): no acute effects on FEV1 when compared to budesonide | PEF (AM, L/min) ([4]; Baseline): 365.1 (93) L/min | PEF (AM, L/min) ([4]; Day 22): 375.3 (97) L/min | TPI-1020 in plasma ([5]; all time points over 8 hours on days 1 and 14, and day 22 about 12 hours after last dose): not detected | AUC of plasma budesonide relative to equimolar budesonide group ([5]; inhaled, equimolar doses): significantly lower AUC values | Cmax of plasma budesonide relative to equimolar budesonide group ([5]; inhaled, equimolar doses): more than five fold lower | AUC of plasma budesonide relative to equimolar budesonide group ([5]; inhaled, equimolar doses, listed as NO-donating budesonide derivative): more than five fold lower | mean sputum neutrophils ([6]; after 22 days, post hoc, patients with baseline sputum neutrophils <20% (normal)): 17.9% | mean sputum neutrophils ([6]; after 22 days, post hoc, patients with baseline sputum neutrophils >20%): 33.4% | mean sputum neutrophils ([6]; baseline, post hoc, patients with baseline sputum neutrophils <20% (normal)): 11.5% | mean sputum neutrophils ([6]; baseline, post hoc, patients with baseline sputum neutrophils >20%): 50.8% | median sputum neutrophils ([6]; day 0 prior to therapy): 29.8% | decrease in median sputum neutrophils ([6]; day 0 to day 22, all patients): 32.6% | median sputum neutrophils ([6]; day 22 (end of therapy)): 20.1% | decrease in mean sputum neutrophils ([6]; over 22 days, post hoc, patients with baseline sputum neutrophils >20%): 35.8% | patients in whom sputum neutrophils decreased to <30% ([6]; patients with high neutrophils at baseline): 57.1% | Sputum eos (%) ([7]; Baseline): 8.7 (10.8) % | Sputum eos (%) ([7]; Day 22): 3.3 (4.0) % | Doses of Rescue Rx ([8]; Baseline): 14.7 (11) | Rescue free days (%) ([8]; Baseline): 39 (39) % | Doses of Rescue Rx ([8]; Day 22): 3.9 (4.5) | Rescue free days (%) ([8]; Day 22): 63.5 (33) % | PC20 (mg/ml) ([9]; Baseline): 3.5 (5.7) mg/ml | PC20 (mg/ml) ([9]; Day 22): 4.0 (8.9) mg/ml | ACSS ([10]; Baseline): 65 (11.1) | ACSS ([10]; Day 22): 71.5 (16.3) | eNO (ppb) ([11]; Baseline): 29 (27) ppb | eNO (ppb) ([11]; Day 22): 16.9 (14) ppb | decrease in eNO ([11]; equimolar doses, baseline to day 22): 12.1 ppb | Blood eos (%) ([12]; Baseline): 2.8 (2.7) % | Blood eos (%) ([12]; Day 22): 1.8 (1.7) % | Blood lymphocytes (%) ([13]; Baseline): 20.3 (16.6) % | Blood lymphocytes (%) ([13]; Day 22): 18.4 (15.4)* % | patients in whom CRP decreased ([14]; 22 days of therapy compared to baseline): 69.2% | CRP (mg/L) ([14]; Baseline): 3.6 (3.9) mg/L | CRP (mg/L) ([14]; Day 22): 3.0 (4.5) mg/L | decrease in plasma CRP ([14]; day 15 versus baseline, p=0.03 between groups): 1.4 mg/L | recruitment of neutrophils into the lungs [15]: inhibited the recruitment of neutrophils | morning plasma cortisol level [16]: 13.7 µg/dL | effect on 24-hour urinary free cortisol [17]: statistically insignificant effects
